{"source": "PubChem BioAssay (NCI)", "assay_in_all_cases": "growth of human tumour cells (NCI), 48 h", "key": {"OVCAR-4 ovarian": {"test_system": "OVCAR-4 ovarian"}, "HCC-2998 colon": {"test_system": "HCC-2998 colon"}, "HCT-15 colon": {"test_system": "HCT-15 colon"}, "DLD-1 colon": {"test_system": "DLD-1 colon"}, "A549 NSCLC": {"test_system": "A549 NSCLC"}, "HL-60(TB) leukemia": {"test_system": "HL-60(TB) leukemia"}, "DMS 114 small cell lung": {"test_system": "DMS 114 small cell lung"}, "SW-620 colon": {"test_system": "SW-620 colon"}, "UACC-257 melanoma": {"test_system": "UACC-257 melanoma"}, "EKVX NSCLC": {"test_system": "EKVX NSCLC"}, "KM12 colon": {"test_system": "KM12 colon"}, "RPMI-8226 leukemia": {"test_system": "RPMI-8226 leukemia"}, "OVCAR-8 ovarian": {"test_system": "OVCAR-8 ovarian"}, "OVCAR-3 ovarian": {"test_system": "OVCAR-3 ovarian"}, "MALME-3M melanoma": {"test_system": "MALME-3M melanoma"}, "CCRF-CEM leukemia": {"test_system": "CCRF-CEM leukemia"}, "SN12C renal": {"test_system": "SN12C renal"}, "SNB-19 CNS": {"test_system": "SNB-19 CNS"}, "ACHN renal": {"test_system": "ACHN renal"}, "U251 CNS": {"test_system": "U251 CNS"}, "DMS 273 small cell lung": {"test_system": "DMS 273 small cell lung"}, "M14 melanoma": {"test_system": "M14 melanoma"}, "SK-OV-3 ovarian": {"test_system": "SK-OV-3 ovarian"}, "NCI-H460 lung": {"test_system": "NCI-H460 lung"}, "LOX IMVI melanoma": {"test_system": "LOX IMVI melanoma"}, "UO-31 renal": {"test_system": "UO-31 renal"}, "CAKI-1 renal": {"test_system": "CAKI-1 renal"}, "RXF 393 renal": {"test_system": "RXF 393 renal"}, "SNB-78 CNS": {"test_system": "SNB-78 CNS"}, "SK-MEL-2 melanoma": {"test_system": "SK-MEL-2 melanoma"}, "HOP-18 NSCLC": {"test_system": "HOP-18 NSCLC"}, "A498 renal": {"test_system": "A498 renal"}, "SR leukemia": {"test_system": "SR leukemia"}, "SF-539 CNS": {"test_system": "SF-539 CNS"}, "NCI-H522 lung": {"test_system": "NCI-H522 lung"}, "HCT-116 colon": {"test_system": "HCT-116 colon"}, "SF-295 CNS": {"test_system": "SF-295 CNS"}, "NCI-H23 lung": {"test_system": "NCI-H23 lung"}, "TK-10 renal": {"test_system": "TK-10 renal"}, "HT29 colon": {"test_system": "HT29 colon"}, "NCI-H226 lung": {"test_system": "NCI-H226 lung"}, "MOLT-4 leukemia": {"test_system": "MOLT-4 leukemia"}, "UACC-62 melanoma": {"test_system": "UACC-62 melanoma"}, "OVCAR-5 ovarian": {"test_system": "OVCAR-5 ovarian"}, "LXFL 529 NSCLC": {"test_system": "LXFL 529 NSCLC"}, "COLO 205 colon": {"test_system": "COLO 205 colon"}, "KM20L2 colon": {"test_system": "KM20L2 colon"}, "HOP-62 NSCLC": {"test_system": "HOP-62 NSCLC"}, "IGROV1 ovarian": {"test_system": "IGROV1 ovarian"}, "M19-MEL melanoma": {"test_system": "M19-MEL melanoma"}, "HOP-92 NSCLC": {"test_system": "HOP-92 NSCLC"}, "SNB-75 CNS": {"test_system": "SNB-75 CNS"}, "SK-MEL-5 melanoma": {"test_system": "SK-MEL-5 melanoma"}, "SK-MEL-28 melanoma": {"test_system": "SK-MEL-28 melanoma"}, "786-0 renal": {"test_system": "786-0 renal"}, "SF-268 CNS": {"test_system": "SF-268 CNS"}}, "note": "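Each compound was tested at five concentrations against cells in 96-well plates for 48 hours. GI50: concentration for 50% inhibition of growth. TGI: total growth inhibition.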"}
{"smiles": "C/C(=N\\NC(=O)c1cccnc1)c1cccc(/C(C)=N/NC(=O)c2cccnc2)n1.CC(=O)[O-].CC(=O)[O-].[Zn+2]", "values": [{"measurement": "TGI", "setting": "OVCAR-4 ovarian", "value": "> 100", "unit": "µM"}, {"measurement": "GI50", "setting": "HCC-2998 colon", "value": 0.995, "unit": "µM"}, {"measurement": "TGI", "setting": "HCC-2998 colon", "value": "> 100", "unit": "µM"}, {"measurement": "TGI", "setting": "HCT-15 colon", "value": "> 100", "unit": "µM"}, {"measurement": "TGI", "setting": "DLD-1 colon", "value": "> 100", "unit": "µM"}, {"measurement": "TGI", "setting": "A549 NSCLC", "value": "> 57.4", "unit": "µM"}, {"measurement": "GI50", "setting": "HL-60(TB) leukemia", "value": 0.492, "unit": "µM"}, {"measurement": "TGI", "setting": "HL-60(TB) leukemia", "value": 2.86, "unit": "µM"}, {"measurement": "GI50", "setting": "DMS 114 small cell lung", "value": 0.949, "unit": "µM"}, {"measurement": "TGI", "setting": "DMS 114 small cell lung", "value": 20.1, "unit": "µM"}, {"measurement": "TGI", "setting": "SW-620 colon", "value": "> 100", "unit": "µM"}, {"measurement": "TGI", "setting": "UACC-257 melanoma", "value": 99.7, "unit": "µM"}, {"measurement": "TGI", "setting": "EKVX NSCLC", "value": "> 100", "unit": "µM"}, {"measurement": "TGI", "setting": "KM12 colon", "value": "> 100", "unit": "µM"}, {"measurement": "TGI", "setting": "RPMI-8226 leukemia", "value": "> 100", "unit": "µM"}, {"measurement": "TGI", "setting": "OVCAR-8 ovarian", "value": "> 39.4", "unit": "µM"}, {"measurement": "GI50", "setting": "OVCAR-3 ovarian", "value": 0.843, "unit": "µM"}, {"measurement": "TGI", "setting": "OVCAR-3 ovarian", "value": "> 100", "unit": "µM"}, {"measurement": "GI50", "setting": "MALME-3M melanoma", "value": 19.3, "unit": "µM"}, {"measurement": "TGI", "setting": "MALME-3M melanoma", "value": "> 79.9", "unit": "µM"}, {"measurement": "GI50", "setting": "CCRF-CEM leukemia", "value": 0.783, "unit": "µM"}, {"measurement": "TGI", "setting": "CCRF-CEM leukemia", "value": 65.6, "unit": "µM"}, {"measurement": "TGI", "setting": "SN12C renal", "value": "> 100", "unit": "µM"}, {"measurement": "TGI", "setting": "SNB-19 CNS", "value": "> 100", "unit": "µM"}, {"measurement": "TGI", "setting": "ACHN renal", "value": "> 68", "unit": "µM"}, {"measurement": "TGI", "setting": "U251 CNS", "value": "> 100", "unit": "µM"}, {"measurement": "GI50", "setting": "DMS 273 small cell lung", "value": 2.15, "unit": "µM"}, {"measurement": "TGI", "setting": "DMS 273 small cell lung", "value": 98.1, "unit": "µM"}, {"measurement": "TGI", "setting": "M14 melanoma", "value": "> 47.2", "unit": "µM"}, {"measurement": "TGI", "setting": "SK-OV-3 ovarian", "value": "> 100", "unit": "µM"}, {"measurement": "TGI", "setting": "NCI-H460 lung", "value": "> 100", "unit": "µM"}, {"measurement": "TGI", "setting": "LOX IMVI melanoma", "value": "> 32.5", "unit": "µM"}, {"measurement": "TGI", "setting": "UO-31 renal", "value": "> 100", "unit": "µM"}, {"measurement": "TGI", "setting": "CAKI-1 renal", "value": 31.4, "unit": "µM"}, {"measurement": "TGI", "setting": "RXF 393 renal", "value": 36.8, "unit": "µM"}, {"measurement": "GI50", "setting": "SNB-78 CNS", "value": 32, "unit": "µM"}, {"measurement": "TGI", "setting": "SNB-78 CNS", "value": "> 100", "unit": "µM"}, {"measurement": "TGI", "setting": "SK-MEL-2 melanoma", "value": "> 54.9", "unit": "µM"}, {"measurement": "GI50", "setting": "HOP-18 NSCLC", "value": 2.55, "unit": "µM"}, {"measurement": "TGI", "setting": "HOP-18 NSCLC", "value": "> 26.9", "unit": "µM"}, {"measurement": "GI50", "setting": "A498 renal", "value": "> 100", "unit": "µM"}, {"measurement": "TGI", "setting": "A498 renal", "value": "> 100", "unit": "µM"}, {"measurement": "GI50", "setting": "SR leukemia", "value": 0.793, "unit": "µM"}, {"measurement": "TGI", "setting": "SR leukemia", "value": 10.8, "unit": "µM"}, {"measurement": "TGI", "setting": "SF-539 CNS", "value": 6.55, "unit": "µM"}, {"measurement": "GI50", "setting": "NCI-H522 lung", "value": 0.134, "unit": "µM"}, {"measurement": "TGI", "setting": "NCI-H522 lung", "value": "> 21.7", "unit": "µM"}, {"measurement": "GI50", "setting": "HCT-116 colon", "value": 1.68, "unit": "µM"}, {"measurement": "TGI", "setting": "HCT-116 colon", "value": "> 100", "unit": "µM"}, {"measurement": "TGI", "setting": "SF-295 CNS", "value": "> 30.2", "unit": "µM"}, {"measurement": "TGI", "setting": "NCI-H23 lung", "value": "> 67", "unit": "µM"}, {"measurement": "TGI", "setting": "TK-10 renal", "value": "> 100", "unit": "µM"}, {"measurement": "GI50", "setting": "HT29 colon", "value": 5.64, "unit": "µM"}, {"measurement": "TGI", "setting": "HT29 colon", "value": "> 100", "unit": "µM"}, {"measurement": "TGI", "setting": "NCI-H226 lung", "value": 27.2, "unit": "µM"}, {"measurement": "TGI", "setting": "MOLT-4 leukemia", "value": 11.4, "unit": "µM"}, {"measurement": "TGI", "setting": "UACC-62 melanoma", "value": 10.7, "unit": "µM"}, {"measurement": "TGI", "setting": "OVCAR-5 ovarian", "value": "> 100", "unit": "µM"}, {"measurement": "GI50", "setting": "LXFL 529 NSCLC", "value": 0.836, "unit": "µM"}, {"measurement": "TGI", "setting": "LXFL 529 NSCLC", "value": "> 100", "unit": "µM"}, {"measurement": "GI50", "setting": "COLO 205 colon", "value": 0.904, "unit": "µM"}, {"measurement": "TGI", "setting": "COLO 205 colon", "value": "> 100", "unit": "µM"}, {"measurement": "TGI", "setting": "KM20L2 colon", "value": "> 100", "unit": "µM"}, {"measurement": "TGI", "setting": "HOP-62 NSCLC", "value": 65.6, "unit": "µM"}, {"measurement": "GI50", "setting": "IGROV1 ovarian", "value": 10.1, "unit": "µM"}, {"measurement": "TGI", "setting": "IGROV1 ovarian", "value": "> 43.4", "unit": "µM"}, {"measurement": "TGI", "setting": "M19-MEL melanoma", "value": "> 100", "unit": "µM"}, {"measurement": "GI50", "setting": "HOP-92 NSCLC", "value": 1.55, "unit": "µM"}, {"measurement": "TGI", "setting": "HOP-92 NSCLC", "value": 6.47, "unit": "µM"}, {"measurement": "GI50", "setting": "SNB-75 CNS", "value": 24.7, "unit": "µM"}, {"measurement": "TGI", "setting": "SNB-75 CNS", "value": 98.2, "unit": "µM"}, {"measurement": "GI50", "setting": "SK-MEL-5 melanoma", "value": 12.9, "unit": "µM"}, {"measurement": "TGI", "setting": "SK-MEL-5 melanoma", "value": "> 28.6", "unit": "µM"}, {"measurement": "GI50", "setting": "SK-MEL-28 melanoma", "value": 29.4, "unit": "µM"}, {"measurement": "TGI", "setting": "SK-MEL-28 melanoma", "value": "> 100", "unit": "µM"}, {"measurement": "TGI", "setting": "786-0 renal", "value": "> 100", "unit": "µM"}, {"measurement": "TGI", "setting": "SF-268 CNS", "value": 84.4, "unit": "µM"}]}
